From US11478451B1, “Macrocyclic chlorine substituted indole derivatives” (Bayer Aktiengesellschaft, priority 2017, dated 2022)
Structures can show the parent of a compound that is named as a salt. Where two headings read alike, the source gives them in different places.

Experiments:
SUDHL5 cells [1] = test: Induction of caspase-3/7 activity (Caspase-Glo 3/7), SUDHL5; format: cell-based; details: EC50, median, SUDHL5, 3 h treatment
Method in brief: (§1)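 Caspase-3/7 activation serves as the apoptosis read-out for MCL-1 inhibition. Cells are treated with compound for 3 h at 37 °C and assayed with Caspase-Glo 3/7; values are corrected by subtracting medium-only background.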

SUDHL5 cells [2] = test: Antiproliferation assay (CellTiter-Glo, 72 h), SUDHL5; format: cell-based; details: IC50, median, SUDHL5, 72 h, read-out: Antiproli SUDHL5 [M] (median)
Method in brief: (§2)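 Cells plated in treatment plates plus a day 0 reference plate; incubated 72 h at 37 °C; CellTiter-Glo added, 10 min incubation, luminescence read; day 0 plate read at time zero.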

SUDHL10 cells [3] = test: Induction of caspase-3/7 activity (Caspase-Glo 3/7), SUDHL10; format: cell-based; details: EC50, median, SUDHL10, 3 h treatment
Method in brief: as §1

SUDHL10 cells [4] = test: Induction of cytotoxicity (CellTiter-Glo, 5 h), SUDHL10; details: SUDHL10, 5 h
AMO-1 cells = test: Antiproliferation assay (CellTiter-Glo, 72 h), AMO-1; format: cell-based; details: IC50, median, AMO-1, 72 h, read-out: Antiproli AMO-1 [M] median
Method in brief: as §2

HMC-1-8 cells = test: Antiproliferation assay (CellTiter-Glo, 72 h), HMC-1-8; format: cell-based; details: IC50, median, HMC-1-8, 72 h, read-out: Antiproli HMC-1-8 [M] median
Method in brief: as §2

SUDHL5 cells [5] = test: Induction of cytotoxicity (CellTiter-Glo, 5 h), SUDHL5; details: SUDHL5, 5 h
[6] = Homo sapiens, SU-DHL10, 5 h, read-out: Cytotox SUDHL10 [M] (median), IC50, median
[7] = Homo sapiens, SU-DHL-5, 5 h, read-out: Cytotox SUDHL5 [M] (median), IC50, median
[8] = read-out: Cytotox SUDHL10 [M] (median), IC50, median
[9] = read-out: Cytotox SUDHL5 [M] (median), IC50, median

Compound | EC50 (SUDHL5 cells [1]; Homo sapiens, SU-DHL-5, 3 h) | IC50 (SUDHL5 cells [2]; Homo sapiens, SU-DHL-5, 72 h) | EC50 (SUDHL10 cells [3]; Homo sapiens, SU-DHL10, 3 h) | IC50 (SUDHL10 cells [4]; [6]) | IC50 (AMO-1 cells; Homo sapiens, AMO1, 72 h) | IC50 (HMC-1-8 cells; 72 h) | IC50 (SUDHL5 cells [5]; [7]) | also measured
CCc1c2c(nn1C)CN(C)CCC(F)(F)Cn1c(C(=O)O)c(CCCOc3cccc4cc(F)ccc34)c3ccc(Cl)c-2c31 (racemic) [Example 129, (rac)-4-chloro-3-ethyl-11,11-difluoro-7-{3-[(6-fluoronaphthalen-1-yl)oxy]propyl}-2,14-dimethyl-10,11,12,13,14,15-hexahydro-2H-pyrazolo[3′,4′:8,9][1,6]diazacycloundecino[10,11,1-hi]indole-8-carboxylic acid] | 300 nM | 4.5e-07 M | 740 nM | 8.9e-07 M | 8.3e-07 M | 5.2e-06 M | 3.3e-07 M | 
CCc1c2c(nn1C)CN(C(=O)OCCOC)CCCCn1c(C(=O)O)c(CCCOc3cccc4cc(F)ccc34)c3ccc(Cl)c-2c31 [Example 134, (rac)-4-chloro-3-ethyl-7-{3-[(6-fluoronaphthalen-1-yl)oxy]propyl}-14-[(2-methoxyethoxy)carbonyl]-2-methyl-10,11,12,13,14,15-hexahydro-2H-pyrazolo[3′,4′:8,9][1,6]diazacycloundecino[10,11,1-hi]indole-8-carboxylic acid] | 130 nM | 2.3e-07 M | 240 nM | 3.4e-07 M | 3.4e-07 M | 2.1e-06 M | 1.8e-07 M | 
CCc1c2c(nn1C)CCCN(C)CCn1c(C(=O)O)c(CCCOc3cccc4cc(F)ccc34)c3ccc(Cl)c-2c31 (racemic) [Example 115, (rac)-4-chloro-3-ethyl-7-{3-[(6-fluoronaphthalen-1-yl)oxy]propyl}-2,12-dimethyl-10,11,12,13,14,15-hexahydro-2H-pyrazolo[3′,4′:8,9][1,4]diazacycloundecino[10,11,1-hi]indole-8-carboxylic acid] | 160 nM | 7.8e-07 M | 1400 nM | 1.4e-06 M | 9.1e-07 M | 8e-06 M | 4.4e-07 M | 
Cc1c2c(nn1C)COCCC(F)(F)Cn1c(C(=O)O)c(CCCOc3cccc4ccccc34)c3ccc(Cl)c-2c31 [Example 95, 4-chloro-11,11-difluoro-2,3-dimethyl-7-{3-[(naphthalen-1-yl)oxy]propyl}-2,10,11,12,13,15-hexahydropyrazolo[4′,3′:9,10][1,6]oxazacycloundecino[8,7,6-hi]indole-8-carboxylic acid N-ethylethanamine salt] |  | 1e-06 M |  |  | 9.7e-07 M |  |  | EC50 (SUDHL5 cells [1]; listed as 095): 550 nM; EC50 (SUDHL10 cells [3]; listed as 095): 870 nM; IC50 (SUDHL10 cells [4]; read-out: Cytotox SUDHL10 [M] (median), IC50, median, listed as 095): 4.5e-07 M; IC50 (HMC-1-8 cells; listed as 095): 7.2e-06 M; IC50 (SUDHL5 cells [5]; read-out: Cytotox SUDHL5 [M] (median), IC50, median, listed as 095): 7.7e-07 M
CCc1c2c(nn1C)CCCN(CCCCOC(C)=O)CCn1c(C(=O)O)c(CCCOc3cccc4cc(F)ccc34)c3ccc(Cl)c-2c31 (racemic) [Example 121, (rac)-12-(4-acetoxybutyl)-4-chloro-3-ethyl-7-{3-[(6-fluoro-1-naphthyl)oxy]propyl}-2-methyl-10,11,12,13,14,15-hexahydro-2H-pyrazolo[3′,4′:8,9][1,4]diazacycloundecino[10,11,1-hi]indole-8-carboxylic acid] | 1200 nM | 9e-07 M | 1700 nM | 1.9e-06 M | 1.3e-06 M | 9.9e-06 M | 1.3e-06 M | 
CCc1c2c(nn1C)CCCN(C)CCn1c(C(=O)O)c(CCCOc3cccc4cc(F)ccc34)c3ccc(Cl)c-2c31 (single isomer, unassigned) [Example 116, (+)-4-chloro-3-ethyl-7-{3-[(6-fluoronaphthalen-1-yl)oxy]propyl}-2,12-dimethyl-10,11,12,13,14,15-hexahydro-2H-pyrazolo[3′,4′:8,9][1,4]diazacycloundecino[10,11,1-hi]indole-8-carboxylic acid] |  |  |  |  |  | 2.3e-06 M |  | EC50 (SUDHL5 cells [1]): 290 nM; IC50 (SUDHL5 cells [2]): 3.4e-07 M; EC50 (SUDHL10 cells [3]): 290 nM; IC50 (SUDHL10 cells [4]; [8]): 3.4e-07 M; IC50 (AMO-1 cells): 2.1e-07 M; IC50 (SUDHL5 cells [5]; [9]): 4.1e-07 M
CCc1c2c(nn1C)COCC(O)CCn1c(C(=O)O)c(CCCOc3cccc4cc(F)ccc34)c3ccc(Cl)c-2c31 (centres unmarked) [Example 99, 4-chloro-3-ethyl-7-{3-[(6-fluoronaphthalen-1-yl)oxy]propyl}-12-hydroxy-2-methyl-2,10,11,12,13,15-hexahydropyrazolo[4′,3′:9,10][1,6]oxazacycloundecino[8,7,6-hi]indole-8-carboxylic acid-N-ethylethanamine salt] |  | 2.6e-07 M |  |  | 5.2e-07 M | 5.9e-06 M |  | EC50 (SUDHL5 cells [1]): 190 nM; EC50 (SUDHL10 cells [3]): 180 nM; IC50 (SUDHL10 cells [4]; [8]): 2.3e-07 M; IC50 (SUDHL5 cells [5]; [9]): 2.7e-07 M
CCc1c2c(nn1C)CCCN(CC(F)F)CCn1c(C(=O)O)c(CCCOc3cccc4cc(F)ccc34)c3ccc(Cl)c-2c31 [Example 119, (+)-4-chloro-12-(2,2-difluoroethyl)-3-ethyl-7-{3-[(6-fluoronaphthalen-1-yl)oxy]propyl}-2-methyl-10,11,12,13,14,15-hexahydro-2H-pyrazolo[3′,4′:8,9][1,4]diazacycloundecino[10,11,1-hi]indole-8-carboxylic acid N-ethylethanamine salt] |  |  |  |  |  |  |  | EC50 (SUDHL5 cells [1]): 110 nM; IC50 (SUDHL5 cells [2]): 3.1e-07 M; EC50 (SUDHL10 cells [3]): 210 nM; IC50 (SUDHL10 cells [4]; [8]): 2.9e-07 M; IC50 (AMO-1 cells): 3.6e-07 M; IC50 (HMC-1-8 cells): 1.3e-06 M; IC50 (SUDHL5 cells [5]; [9]): 1.4e-07 M
CCc1c2c(nn1C)COCCC(F)(F)Cn1c(C(=O)O)c(CCCOc3cccc4cc(F)ccc34)c3ccc(Cl)c-2c31 (single isomer, unassigned) [Example 98, (+)-4-chloro-3-ethyl-11,11-difluoro-7-{3-[(6-fluoronaphthalen-1-yl)oxy]propyl}-2-methyl-2,10,11,12,13,15-hexahydropyrazolo[4′,3′:9,10][1,6]oxazacycloundecino[8,7,6-hi]indole-8-carboxylic acid] |  |  |  |  |  |  |  | EC50 (SUDHL5 cells [1]; listed as 098): 6200 nM; IC50 (SUDHL5 cells [2]; listed as 098): 2.2e-06 M; EC50 (SUDHL10 cells [3]; listed as 098): 5000 nM; IC50 (SUDHL10 cells [4]; read-out: Cytotox SUDHL10 [M] (median), IC50, median, listed as 098): 6.3e-06 M; IC50 (AMO-1 cells; listed as 098): 6.9e-06 M; IC50 (HMC-1-8 cells; listed as 098): 5.9e-06 M; IC50 (SUDHL5 cells [5]; read-out: Cytotox SUDHL5 [M] (median), IC50, median, listed as 098): 7.3e-06 M

Second part, led by results:

EC50 (SUDHL5 cells [1]; Homo sapiens, SU-DHL-5, 3 h) | IC50 (SUDHL5 cells [2]; Homo sapiens, SU-DHL-5, 72 h) | EC50 (SUDHL10 cells [3]; Homo sapiens, SU-DHL10, 3 h) | Compound | IC50 (SUDHL10 cells [4]; [6]) | IC50 (AMO-1 cells; Homo sapiens, AMO1, 72 h) | IC50 (HMC-1-8 cells; 72 h) | IC50 (SUDHL5 cells [5]; [7]) | also measured
920 nM | 6.8e-07 M | 750 nM | CCc1c2c(nn1C)CCCN(CCCCO)CCn1c(C(=O)O)c(CCCOc3cccc4cc(F)ccc34)c3ccc(Cl)c-2c31 (racemic) [Example 122, (rac)-4-chloro-3-ethyl-7-{3-[(6-fluoro-1-naphthyl)oxy]propyl}-12-(4-hydroxybutyl)-2-methyl-10,11,12,13,14,15-hexahydro-2H-pyrazolo[3′,4′:8,9][1,4]diazacycloundecino[10,11,1-hi]indole-8-carboxylic acid] | 1.1e-06 M | 5.1e-07 M | 6.6e-06 M | 1.1e-06 M | 
470 nM | 2.2e-06 M | 1100 nM | CCc1c2c(nn1C)CCCN(CC(F)(F)C(F)F)CCn1c(C(=O)O)c(CCCOc3cccc4cc(F)ccc34)c3ccc(Cl)c-2c31 (racemic) [Example 123, (rac)-4-chloro-3-ethyl-7-{3-[(6-fluoro-1-naphthyl)oxy]propyl}-2-methyl-12-(2,2,3,3-tetrafluoropropyl)-10,11,12,13,14,15-hexahydro-2H-pyrazolo[3′,4′:8,9][1,4]diazacycloundecino[10,11,1-hi]indole-8-carboxylic acid] | 1.2e-06 M | 7.7e-07 M | 3.1e-06 M | 6.6e-07 M | 
